Test results reported in patent US8163909B2, “Substituted hydroxyethyl amine compounds as beta-secretase modulators and methods of use” (Amgen Inc., priority 2007, dated 2012).

Tests used:
CYP2D6 = CYP2D6 (Homo sapiens, UniProt P10635); experiment: CYP2D6 inhibition assay (bufuralol, pooled human liver microsomes); conditions: 2D6 IC50 (uM), CYP enzyme inhibition
[1] = tested on: Aβ40 in conditioned medium of cells stably expressing Amyloid Precursor Protein (APP); experiment: In vitro BACE cell-based assay (Aβ40 in conditioned medium, sandwich ELISA); conditions: Homo sapiens, HEK293, HEK cell-based assay, IC50's in uM; read-out: HEK cell assay;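 note: compounds added as a dilution series, secreted peptide quantified by europium time-resolved fluorescence readout, potency fitted from percent of control versus compound concentration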
[2] = target: Beta Secretase enzyme (BACE) (Homo sapiens, UniProt P56817); experiment: In vitro enzymatic BACE FRET (fluorescence resonance energy transfer) assay; format: biochemical; conditions: BACE enzyme assay, IC50's in uM; read-out: BACE1 FRET assay;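 note: fluorescence read after 1 h with 50 nM quenched peptide substrate spanning the BACE cleavage site, in pH 4.2 acetate buffer containing 10% DMSO and nonionic detergent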
[3] = Microsomal stability assay, human liver microsomes; conditions: human liver microsomal data;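 note: pooled human liver microsomes at 0.25 mg/mL with 1 µM compound and NADPH at 37 °C, pH 7.4, for 30 min, unchanged parent quantified by LC-MS/MS against the 0 min sample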
[4] = Microsomal stability assay, rat liver microsomes; conditions: rat liver microsomal data;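 note: rat liver microsomes (0.25 mg/mL) with about 1 µM compound plus 1 mM NADPH, pH 7.4, 37 °C for 30 min, parent left measured by LC-MS/MS against 0 min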
CYP3A4 (CYP3A) = CYP3A4 (CYP3A) (Homo sapiens, UniProt P08684); experiment: in vitro; conditions: microsomes, pH 7.4;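 note: inhibition of CYP3A-mediated 1-hydroxymidazolam formation after 10 min incubation with NADPH, quantified by HPLC MS relative to metabolite produced without test compound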
Chain of CYP3A4 (CYP3A) (P08684 2-503): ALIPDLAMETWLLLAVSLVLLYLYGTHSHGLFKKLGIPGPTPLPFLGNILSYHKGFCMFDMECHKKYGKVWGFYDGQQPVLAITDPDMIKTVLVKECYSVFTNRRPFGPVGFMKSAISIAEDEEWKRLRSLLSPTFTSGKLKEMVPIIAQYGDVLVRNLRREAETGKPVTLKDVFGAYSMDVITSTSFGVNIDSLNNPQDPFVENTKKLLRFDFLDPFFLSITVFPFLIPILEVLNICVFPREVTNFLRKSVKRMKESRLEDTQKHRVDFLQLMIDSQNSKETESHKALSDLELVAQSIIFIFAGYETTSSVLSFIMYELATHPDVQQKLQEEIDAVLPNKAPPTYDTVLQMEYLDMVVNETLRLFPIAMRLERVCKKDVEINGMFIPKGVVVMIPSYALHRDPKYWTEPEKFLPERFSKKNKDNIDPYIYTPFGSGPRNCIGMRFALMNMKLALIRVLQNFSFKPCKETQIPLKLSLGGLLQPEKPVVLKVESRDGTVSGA

Chain of CYP2D6 (P10635 whole entry): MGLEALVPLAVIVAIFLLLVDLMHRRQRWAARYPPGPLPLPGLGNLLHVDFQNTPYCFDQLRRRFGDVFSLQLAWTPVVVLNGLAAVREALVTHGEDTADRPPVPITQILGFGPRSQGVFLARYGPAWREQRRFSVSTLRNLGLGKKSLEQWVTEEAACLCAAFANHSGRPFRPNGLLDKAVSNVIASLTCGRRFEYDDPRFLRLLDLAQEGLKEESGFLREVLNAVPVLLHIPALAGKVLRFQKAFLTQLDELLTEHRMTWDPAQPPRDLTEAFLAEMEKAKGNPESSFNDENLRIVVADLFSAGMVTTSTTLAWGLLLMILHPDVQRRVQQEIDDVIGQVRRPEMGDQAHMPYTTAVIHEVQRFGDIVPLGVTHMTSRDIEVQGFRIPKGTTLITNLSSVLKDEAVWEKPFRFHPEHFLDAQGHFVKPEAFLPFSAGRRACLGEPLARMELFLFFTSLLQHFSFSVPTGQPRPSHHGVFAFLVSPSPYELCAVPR
Chain of Beta Secretase enzyme (BACE) (P56817 46-501): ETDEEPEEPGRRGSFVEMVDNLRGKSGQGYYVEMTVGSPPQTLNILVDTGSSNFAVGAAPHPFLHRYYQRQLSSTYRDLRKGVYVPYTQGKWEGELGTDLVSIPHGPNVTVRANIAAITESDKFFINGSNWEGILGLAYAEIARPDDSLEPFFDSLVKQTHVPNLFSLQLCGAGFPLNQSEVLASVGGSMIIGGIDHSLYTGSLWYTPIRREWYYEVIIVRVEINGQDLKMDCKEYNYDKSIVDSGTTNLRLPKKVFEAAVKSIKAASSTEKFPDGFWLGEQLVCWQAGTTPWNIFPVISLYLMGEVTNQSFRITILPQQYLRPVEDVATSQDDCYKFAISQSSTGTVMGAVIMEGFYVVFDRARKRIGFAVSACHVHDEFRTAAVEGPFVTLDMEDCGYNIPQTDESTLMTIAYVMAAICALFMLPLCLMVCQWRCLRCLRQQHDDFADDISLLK

SMILES | IC50 (CYP2D6) [µM] | IC50 [1] [µM] | IC50 [2] [µM] | HLM [3] [µL/min/mg] | RLM [4] [µL/min/mg] | IC50 (CYP3A4 (CYP3A)) [nM]
COC(OC)C(=O)N[C@@H](Cc1cccc(C#N)c1)[C@H](O)CN[C@H]1CC2(CCC2)Oc2ncc(CC(C)(C)C)cc21 [compound 798] | 4.7 | 0.005 | 0.006 | 468 | 423 | 500
COCC(=O)N[C@@H](Cc1cc(F)cc(Cl)c1)[C@H](O)CN[C@H]1CC2(CCC2)Oc2ncc(CC(C)(F)F)cc21 [compound 799] | 4.95 | 0.019 | 0.008 | 663 | 236.5 | 500
COCC(=O)N[C@@H](Cc1cccc(Br)c1)[C@H](O)CN[C@H]1CC2(CCC2)Oc2ncc(CC(C)C)cc21 [compound 800] | 1.4 | 0.013 | 0.004 | 921 | 459 | 200
CO[C@H](C)C(=O)N[C@@H](Cc1cccc(Br)c1)[C@H](O)CN[C@H]1CC2(CCC2)Oc2ncc(CC(C)C)cc21 [compound 801] | 3.8 | 0.118 | 0.016 | 399 | 644 | 300
CC#Cc1cccc(C[C@H](NC(=O)COC)[C@H](O)CN[C@H]2CC3(CCC3)Oc3ncc(CC(C)C)cc32)c1 [compound 802] | 2.15 | 0.032 | 0.005 | 60.5 | 191 | 100
COCC(=O)N[C@@H](Cc1cccc(-c2ncco2)c1)[C@H](O)CN[C@H]1CC2(CCC2)Oc2ncc(CC(C)C)cc21 [compound 804, N-((1S,2R)-2-hydroxy-3-(((4′S)-6′-(2-methylpropyl)-3′,4′-dihydrospiro[cyclobutane-1,2′-pyrano[2,3-b]pyridin]-4′-yl)amino)-1-(3-(1,3-oxazol-2-yl)benzyl)propyl)-2-methoxyacetamide] | 2.5 | 0.03 | 0.009 | 61 | 43 | 200
CC#Cc1ccc2c(c1)[C@@H](NC[C@@H](O)[C@H](Cc1cc(F)cc(-c3nccs3)c1)NC(=O)COC)CC1(CCC1)O2 [compound 806] | 0.6 | 4.15 | 0.669 | 61 | 92 | 200
CCO[C@H](C)C(=O)N[C@@H](Cc1ccc2c(c1)OCO2)[C@H](O)CN[C@H]1CC2(CCC2)Oc2ncc(CC(C)C)cc21 [compound 808] | 2.3 | 0.414 | 0.138 | 49 | 179 | 100
CCO[C@@H](C)C(=O)N[C@@H](Cc1ccc2c(c1)OCO2)[C@H](O)CN[C@H]1CC2(CCC2)Oc2ncc(CC(C)C)cc21 [compound 809] | 6.7 | 0.513 | 0.269 | 33 | 117 | 200
COCC(=O)N[C@H](Cc1cccc(-c2nccs2)c1)[C@@H](O)CN[C@H]1CC2(CCC2)Oc2ncc(C3CCCC3)cc21 [compound 810] | 0.5 | 1.34 | 4.49 | 274 | 271 | 100
CC#Cc1cnc2c(c1)[C@@H](NC[C@@H](O)[C@H](Cc1cccc(-c3nccs3)c1)NC(=O)COC)CC1(CCC1)O2 [compound 811] | 1 | 0.736 | 0.309 | 36 | 54 | 300
CC#Cc1cnc2c(c1)[C@@H](NC[C@@H](O)[C@H](Cc1cccc(Br)c1)NC(=O)COC)CC1(CCC1)O2 [compound 812] | 3 | 0.954 | 0.258 | 260 | 345 | 400
COCC(=O)N[C@@H](Cc1cccc(-c2nccs2)c1)[C@H](O)CN[C@H]1CC2(CCC2)Oc2ncc(CC(C)(C)F)cc21 [compound 813, N-((1S,2R)-3-(((4′S)-6′-(2-fluoro-2-methylpropyl)-3′,4′-dihydrospiro[cyclobutane-1,2′-pyrano[2,3-b]pyridin]-4′-yl)amino)-2-hydroxy-1-(3-(1,3-thiazol-2-yl)benzyl)propyl)-2-methoxyacetamide] | 1.1 | 0.014 | 0.006 | 32 | 27 | 500
COC(OC)C(=O)N[C@@H](Cc1cc(F)cc(-c2nccs2)c1)[C@H](O)CN[C@H]1CC2(CCC2)Oc2ncc(CC(C)(F)F)cc21 [compound 818] | 2.3 | 0.059 | 0.013 | 41 | 46 | 600
CC(C)(C)CCC(=O)N[C@@H](Cc1ccccc1)[C@H](O)CN[C@H]1CC2(CCC2)Oc2ncc(CC(C)(C)C)cc21 [compound 819] | 2 | 0.074 | 0.013 | 736 | 543 | 200
CO[C@H](C)C(=O)N[C@@H](Cc1cc(F)cc(Cl)c1)[C@H](O)CN[C@H]1CC2(CCC2)Oc2ncc(CC(C)(F)F)cc21 [compound 820] | 3.8 | 0.021 | 0.022 | 682 | 324 | 300
C#Cc1cccc(C[C@H](NC(=O)COC)[C@H](O)CN[C@H]2C[C@@]3(CCOC3)Oc3ncc(CC(C)(C)C)cc32)c1 [compound 825, N-((1S,2R)-3-(((3S,4′S)-6′-(2,2-dimethylpropyl)-3′,4,4′,5-tetrahydrospiro[furan-3,2′-pyrano[2,3-b]pyridin]-4′-yl)amino)-1-(3-ethynylbenzyl)-2-hydroxypropyl)-2-methoxyacetamide] | 7.3 | 0.009 | 0.005 | 17 | 85 | 100
COCC(=O)N[C@@H](Cc1cccc(-c2nccs2)c1)[C@H](O)CN[C@@H]1C[C@@]2(CCOC2)Oc2ncc(CC(C)(C)C)cc21 [compound 827, N-((1S,2R)-3-(((3S,4′R)-6′-(2,2-dimethylpropyl)-3′,4,4′,5-tetrahydrospiro[furan-3,2′-pyrano[2,3-b]pyridin]-4′-yl)amino)-2-hydroxy-1-(3-(1,3-thiazol-2-yl)benzyl)propyl)-2-methoxyacetamide] | 2.1 | 0.007 | 0.006 | 97 | 197 | 500
C#Cc1cccc(C[C@H](NC(=O)C(OC)OC)[C@H](O)CN[C@H]2CC3(CCC3)Oc3ncc(CC(C)(F)F)cc32)c1 [compound 830] | 1.3 | 0.023 | 0.007 | 28 | 35 | 100
C#Cc1cccc(C[C@H](NC(=O)COC)[C@H](O)CN[C@H]2CC3(CCC3)Oc3ncc(CC(C)(C)C(F)(F)F)cc32)c1 [compound 838] | 2 | 0.028 | 0.01 | 34 | 54 | 100
